In patent US11579141B2, “Methods for identifying a non-healing skin wound and for monitoring the healing of a skin wound” (AKRIBES BIOMEDICAL GMBH, priority 2016, dated 2023):

What was measured:
[1] = system: primary human dermal fibroblasts (HDF); experiment: Primary human dermal fibroblast (HDF) proliferation assay (2D), SRB staining; assay type: cell-based
Protocol: Primary human dermal fibroblasts (HDF) were purchased from CELLnTEC, Bern. They were routinely grown in Dulbecco's modified Eagle's medium (DMEM) containing 10% FCS, 2 mM glutamine, and 100 U/ml penicillin/100 μg/ml streptomycin. Media, antibiotics, and glutamine were bought from Lonza. The cells were used at passage 10. Cells were trypsinized and seeded at 5000 cells/well in 200 μl into the inner wells of 96-well plates. The outer wells were loaded with sterile water. The cells were allowed to adhere overnight and then incubated for 72 hours at 37° C. under the following conditions: graded compound concentrations or 20 ng/ml PDGF-BB (Tonbo Biosciences # TO-21-8501-U010) in the absence or presence of different dilutions of sterile-filtered WE in medium. For negative control samples, 200 μl medium was added instead of specific stimuli. Alternatively, the cells were seeded into 384-well plates at 2500 cells/well together with test compounds or growth factors and WE or medium in a total volume of 50 μl. […]
Total cellular protein was determined as a measure of cell number by staining the fixed cells with sulforhodamine B (SRB, Sigma). […] After drying, the dye was eluted with 10 mM Tris.HCl, pH8.5, and absorbance was measured either at 550 or 492 nm for lower and higher cell densities, respectively. The average absorbance of the sample representing the day 1 starting cell number (for 96-well plates) was subtracted from the absorbance values of the WE-treated cells.
All experiments were carried out in triplicate for each sample and concentration, and means±standard deviation (SD) were used for the evaluation of the experiment. Results are expressed as percentage of control values for unstimulated cells.
For screening with WE, compound results were calculated as % proliferation of untreated and unstimulated control (=100%), and the cut-off for a positive hit was defined as % average proliferationWE+3*standard deviation, as shown in FIG. 5.

chronic wounds = conditions: non-steroidal anti-inflammatory drug; cited from earlier work

With `CNC(=O)[C@H](Cc1c[nH]c2ccccc12)NC(=O)[C@@H](CC(=O)NO)CC(C)C` [GM6001] the “effect on the effect of wound exudate on HDF proliferation” value ([1]; in presence of WE #49 (highest MMP activity), FIG. 22) was “partially reverses” and the “effect on HDF proliferation” value ([1]; medium or WE without MMP activity, FIG. 22) was “no effect”.
In the case of `CC(C)Cc1ccc(C(C)C(=O)O)cc1` (stereo not shown) [ibuprofen], the effectiveness in wounds (chronic wounds) is listed as “only effective in ameliorating wound pain”.
With PDGF the “effect on the growth inhibitory effect of wound exudate in 2D fibroblast proliferation” value ([1]; in presence of aggressive, non-healing WE #49, FIG. 21) was “only partially reverses”.
